Peptide text beside a SMILES is read from it.
Tests used:
[1] = biological target: T1, pΔPH-PKB-ΔC (PKBβ residues 146 to 460, phosphorylated in vitro on Thr-309) (Homo sapiens, UniProt P31751); assay: Protein kinase B assay with Crosstide as substrate, peptide stimulation of pΔPH-PKB-ΔC; format: biochemical; details: Crosstide substrate
T1 construct: pΔPH-PKB-ΔC (residues 146 to 460, phosphorylated in vitro on Thr-309); 6xHis (N, cleaved yes); made in house; host or cells: Sf9 insect cells / baculovirus (pFastBacHTa)
Experimental: To test the model that Ser 474 phosphorylation promotes an interaction between the hydrophobic motif and the induced hydrophobic groove of the N-terminal lobe, thereby causing an allosteric activation of the kinase, the ability of peptides modelled on the hydrophobic motif of PKB to activate the enzyme via an intermolecular association with the N-terminal lobe was assessed.
(§1) PKB was assayed essentially as described by Andjelkovic et al. (1999) with 30 μM Crosstide (GRPRTSSAEG) as substrate except the protein kinase A inhibitor peptide was not added to the reactions. For peptide stimulation experiments the various peptides were dissolved in water and added to the kinase assay mix prior to adding the PKB protein. Peptides were synthesized by Franz Fischer at the FMI or purchased from Neosystem, Strasburg, France.
All experiments were performed in either duplicate or triplicate.

[2] = biological target: T2, ΔPH-PKB-ΔC (Homo sapiens, UniProt P31751); assay: Isothermal titration calorimetry, peptide binding to ΔPH-PKB-ΔC
T2 construct: ΔPH-PKB-ΔC(residues 146 to 460, not phosphorylated on Thr-309); 6xHis (N, cleaved yes); made in house; host or cells: Sf9 insect cells / baculovirus (pFastBacHTa)
Experimental: (§2) (C) Isothermal titration calorimetry measurements of the binding of PIFtide to pΔPH-PKB-ΔC (left) and ΔPH-PKB-ΔC (right). Upper panel, raw data of the titration of PIFtide into pΔPH-PKB-ΔC. Lower panel, integrated heats of injections, corrected for the heat of dilution, with the solid line corresponding to the best fit of the data using the MicroCal software.
(§3) Using isothermal titration calorimetry, the affinity between PIFtide and both pΔPH-PKB-ΔC and ΔPH-PKB-ΔC was determined (FIG. 5C). […] The observed large decrease in entropy is […] typical of protein-peptide interactions, for example SH2-domain-phosphotyrosine peptide complexes (Ladbury et al., 1996), and is consistent with an ordering of both the protein, presumably the αB- and αC-helices of the N-lobe, and peptide on complex formation.

[3] = biological target: T3, pΔPH-PKB-ΔC (Homo sapiens, UniProt P31751); assay: Isothermal titration calorimetry, peptide binding to pΔPH-PKB-ΔC; details: ITC; read-out: equilibrium dissociation constant
T3 construct: pΔPH-PKB-ΔC (residues 146 to 460, phosphorylated in vitro on Thr-309); 6xHis (N, cleaved yes); made in house; host or cells: Sf9 insect cells / baculovirus (pFastBacHTa)
Experimental: as §2, §3

[4] = biological target: T4, PDK1 (Homo sapiens, UniProt O15530); details: cited from earlier work
T4 sequence (O15530 1-556): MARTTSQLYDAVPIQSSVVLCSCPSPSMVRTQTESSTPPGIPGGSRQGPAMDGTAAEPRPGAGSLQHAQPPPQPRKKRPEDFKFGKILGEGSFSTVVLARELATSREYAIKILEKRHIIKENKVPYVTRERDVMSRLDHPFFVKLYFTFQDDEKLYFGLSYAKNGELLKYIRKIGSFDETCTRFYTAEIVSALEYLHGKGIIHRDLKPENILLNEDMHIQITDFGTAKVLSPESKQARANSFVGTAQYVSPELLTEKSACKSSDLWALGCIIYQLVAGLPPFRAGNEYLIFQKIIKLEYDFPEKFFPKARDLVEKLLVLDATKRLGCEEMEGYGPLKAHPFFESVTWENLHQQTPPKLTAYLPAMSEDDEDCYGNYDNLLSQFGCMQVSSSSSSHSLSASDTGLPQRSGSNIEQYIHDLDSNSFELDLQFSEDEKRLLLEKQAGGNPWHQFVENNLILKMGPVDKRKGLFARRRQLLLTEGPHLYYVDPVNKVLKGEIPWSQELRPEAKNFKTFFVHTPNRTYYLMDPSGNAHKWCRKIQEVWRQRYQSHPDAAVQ

[5] = biological target: T5, His tagged pΔPH-PKB-ΔC L225A mutant (Homo sapiens, UniProt P31751, L225A); assay: PIFtide responsiveness of hydrophobic groove mutant Leu 225; format: biochemical; details: 130 μM PIFtide
T5 construct: pΔPH-PKB-ΔC (residues 146 to 460, phosphorylated in vitro on Thr-309); made in house; host or cells: HEK cells (transient expression), purified on Ni-NTA agarose
Experimental: (§4) Mutations of conserved hydrophobic motif residues of PIFtide and PKB HM-peptide reduce or eliminate their potential to activate ΔPH-PKB-ΔC phosphorylated on Thr 309. Mutations of hydrophobic and electrostatic residues of the ΔPH-PKB-ΔC N-lobe hydrophobic groove reduces the stimulation of PKB activity by 130 μM PIFtide.
(§5) To test the notion that a hydrophobic groove is induced in PKB to engage the hydrophobic motif, and activate the kinase, a series of His tagged pΔPH-PKB-ΔC hydrophobic groove mutants were prepared and their responsiveness to PIFtide assessed. PKB mutants were transiently expressed in HEK cells, phosphorylated in vitro with PDK1, and purified using Ni-NTA agarose. […] Wild type PKB prepared using this procedure was stimulated ˜5-fold by 130 μM PIFtide (FIG. 6B).
as §1

[6] = biological target: T4, PDK1; details: cited from earlier work; remark: listed apart in the source
[7] = biological target: T6, His tagged pΔPH-PKB-ΔC R202D mutant (Homo sapiens, UniProt P31751, R202D); assay: PIFtide responsiveness of charge reversal mutant R202D; format: biochemical
T6 construct: pΔPH-PKB-ΔC (residues 146 to 460, phosphorylated in vitro on Thr-309); made in house; host or cells: HEK cells (transient expression), purified on Ni-NTA agarose
Experimental: as §4, §5
Electrostatic interactions are important in defining high affinity PIFtide and PKB HM peptide associations with PKB (FIG. 5B), and form the basis for the increased affinity of the HM for the N-lobe and subsequent activation of PKB by Ser 474 phosphorylation. […] The equivalent residue of PKA, Arg 93, which is also conserved in PKC and PRK2, forms a water-mediated salt bridge to the carboxylate group of Glu 349 (FIG. 2).
PKB was assayed essentially as described by Andjelkovic et al. (1999) with 30 μM Crosstide (GRPRTSSAEG) as substrate except the protein kinase A inhibitor peptide was not added to the reactions. […]

T2 sequence (P31751 146-460, stated change not applied): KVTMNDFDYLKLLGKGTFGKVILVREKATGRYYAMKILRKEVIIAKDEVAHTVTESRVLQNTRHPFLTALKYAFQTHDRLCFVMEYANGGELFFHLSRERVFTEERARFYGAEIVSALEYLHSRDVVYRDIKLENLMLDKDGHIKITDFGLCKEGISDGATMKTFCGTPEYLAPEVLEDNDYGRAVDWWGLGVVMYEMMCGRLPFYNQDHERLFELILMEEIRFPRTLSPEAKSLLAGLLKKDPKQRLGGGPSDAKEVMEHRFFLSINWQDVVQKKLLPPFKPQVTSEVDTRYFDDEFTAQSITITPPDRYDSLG
T1 sequence (P31751 146-460, stated change not applied): as above
T6 sequence (P31751 146-460 R202D): as the sequence (P31751 146-460, stated change not applied) above, with R57D counted along it
T3 sequence (P31751 146-460, stated change not applied): as the sequence (P31751 146-460, stated change not applied) above
T5 sequence (P31751 146-460 L225A): as the sequence (P31751 146-460, stated change not applied) above, with L80A counted along it

Which “concentration of maximum and saturable activation” value [1] does the source give for `CC[C@H](C)[C@H](NC(=O)[C@H](Cc1ccc(O)cc1)NC(=O)[C@H](CC(=O)O)NC(=O)[C@H](Cc1ccccc1)NC(=O)[C@H](CC(=O)O)NC(=O)[C@H](CCCNC(=N)N)NC(=O)[C@H](Cc1ccccc1)NC(=O)[C@H](CCSC)NC(=O)[C@H](CCC(=O)O)NC(=O)[C@H](CCC(N)=O)NC(=O)[C@H](CCC(=O)O)NC(=O)[C@H](CCC(=O)O)NC(=O)[C@H](CCC(=O)O)NC(=O)[C@H](CO)NC(=O)[C@H](CC(C)C)NC(=O)[C@@H](NC(=O)[C@H](CCCNC(=N)N)NC(=O)[C@@H]1CCCN1C(=O)[C@H](CCC(=O)O)NC(=O)[C@@H](N)CCCNC(=N)N)[C@@H](C)CC)C(=O)N[C@@H](C)C(=O)N[C@@H](CC(=O)O)C(=O)N[C@@H](Cc1c[nH]c2ccccc12)C(=O)O` [PIFtide] (H-REPRILSEEEQEMFRDFDYIADW-OH; N-terminus and C-terminus assumed) here?
The value was 20 µM.

What about the “specific activity of pΔPH-PKB-ΔC maximally activated by PIFtide” value [1] of the same compound?
The value was 350 nmol/min/mg.

And the EC50 ([1]; value of PIFtide(D->A) called estimated, read-out: EC50 for activation of pΔPH-PKB-ΔC)?
The EC50 was 3 µM.

And the “binding to ΔPH-PKB-ΔC (in words)” value [2]?
Its value is “can bind”.

And the “enthalpy change ΔH” value ([2]; ITC)?
Its value is -16.0 kcal/mol.

And the “entropy term TΔS” value ([2]; ITC)?
Its value is -9.2 kcal/mol.

What about the Kd ([2]; ITC, read-out: dissociation constant) of the same compound?
The Kd was 5.5 µM.

What about the Kd [3] of the same compound?
Its Kd is 6 µM.

And the “effect on thermal stability of PDK1 (in words)” value [4]?
Its value is “greatly increases”.

And the “responsiveness to PIFtide (in words)” value [5]?
The value was “almost a complete loss of responsiveness”.

What about the “stimulation of PDK1 activity” value [6] of the same compound?
Its value is “four-fold”.

What about the “ability of PIFtide to activate R202D PKB (in words)” value ([7]; 130 μM PIFtide) of the same compound?
The value was “almost eliminates”.

And the “responsiveness of R202D PKB (in words)” value ([7]; higher concentrations of the peptide)?
Its value is “more responsive”.

Reference: patent publication US20040009569A1, “Kinase crystal structures and materials and methods for kinase activation” (priority 2001, published 2004)
